Assay results from ChEMBL document CHEMBL4024706 (Eur J Med Chem, 2017).

Key:
[1] = target: Dual specificity protein kinase CLK1 (Homo sapiens) (UniProt P49759); assay: Inhibition of wild-type human full length CLK1 (M1 to I484 residues) expressed in bacterial expression system assessed as residual activity at 1 uM by Kinomescan method relative to control
[2] = target: Tyrosine-protein kinase BTK (Homo sapiens, UniProt Q06187); assay: Inhibition of full length recombinant human N-terminal His tagged […] expressed in baculovirus infected Sf9 insect cells using poly (Glu,Tyr)4:1 as substrate pretreated for 60 mins followed by substrate addition after 1 hr by ADP-Glo luminescence assay
[3] = target: Cyclin-dependent kinase 15 (Homo sapiens) (UniProt Q96Q40); assay: Inhibition of wild-type human full length PFTAIRE2 (M1 to W384 residues) expressed in bacterial expression system assessed as residual activity at 1 uM by Kinomescan method relative to control
[4] = system: Receptor-type tyrosine-protein kinase FLT3 (Homo sapiens), P36888 [K663Q]; assay: Inhibition of human partial length FLT3 K663Q mutant (V592 to Y969 residues) expressed in bacterial expression system assessed as residual activity at 1 uM by Kinomescan method relative to control
[5] = target: Fibroblast growth factor receptor 3 (Homo sapiens) (UniProt P22607); assay: Inhibition of wild-type human partial length FGFR3 (R442 to S771 residues) expressed in bacterial expression system assessed as residual activity at 1 uM by Kinomescan method relative to control
[6] = AUC (0 to infinity) in Sprague-Dawley rat at 10 mg/kg, po by LC-MS/MS method; format: ADME, organism-based; design: dose 10 mg/kg, route oral, time infinity; conditions: in vivo
[7] = target: Mitogen-activated protein kinase kinase kinase 15 (Homo sapiens) (UniProt Q6ZN16); assay: Inhibition of wild-type human partial length MAP3K15 (T625 to L932 residues) expressed in mammalian expression system assessed as residual activity at 1 uM by Kinomescan method relative to control
[8] = target: Rho-associated protein kinase 2 (Homo sapiens) (UniProt O75116); assay: Inhibition of wild-type human partial length ROCK2 (M1 to T431 residues) expressed in mammalian expression system assessed as residual activity at 1 uM by Kinomescan method relative to control
[9] = target: Serine/threonine-protein kinase mTOR (Homo sapiens) (UniProt P42345); assay: Inhibition of wild-type human partial length MTOR (L1382 to W2549 residues) expressed in mammalian expression system assessed as residual activity at 1 uM by Kinomescan method relative to control
[10] = target: Serine/threonine-protein kinase Sgk3 (Homo sapiens) (UniProt Q96BR1); assay: Inhibition of wild-type human partial length SGK3 (M119 to L496 residues) expressed in mammalian expression system assessed as residual activity at 1 uM by Kinomescan method relative to control
[11] = system: Tyrosine-protein kinase ABL1 (Homo sapiens), P00519 [Q252H]; assay: Inhibition of human phosphorylated ABL1 Q252H mutant expressed in mammalian expression system assessed as residual activity at 1 uM by Kinomescan method relative to control
[12] = system: Mast/stem cell growth factor receptor Kit (Homo sapiens), P10721 [UNDEFINED MUTATION]; assay: Inhibition of human partial length KIT V559D/V654 double mutant (Y545 to D952 residues) expressed in bacterial expression system assessed as residual activity at 1 uM by Kinomescan method relative to control
[13] = target: Ribosomal protein S6 kinase alpha-3 (Homo sapiens) (UniProt P51812); assay: Inhibition of wild-type human partial length C-terminal RSK2 kinase domain 2 (V402 to S715 residues) expressed in mammalian expression system assessed as residual activity at 1 uM by Kinomescan method relative to control
[14] = target: Serine/threonine-protein kinase ULK2 (Homo sapiens) (UniProt Q8IYT8); assay: Inhibition of wild-type human partial length ULK2 (M1 to S301 residues) expressed in mammalian expression system assessed as residual activity at 1 uM by Kinomescan method relative to control
[15] = target: Tyrosine-protein kinase Fgr (Homo sapiens) (UniProt P09769); assay: Inhibition of wild-type human partial length FGR (L233 to T529 residues) expressed in bacterial expression system assessed as residual activity at 1 uM by Kinomescan method relative to control
[16] = target: Interleukin-1 receptor-associated kinase 1 (Homo sapiens) (UniProt P51617); assay: Inhibition of wild-type human partial length IRAK1 (R194 to S712 residues) expressed in mammalian expression system assessed as residual activity at 1 uM by Kinomescan method relative to control
[17] = target: Interleukin-1 receptor-associated kinase 3 (Homo sapiens) (UniProt Q9Y616); assay: Inhibition of wild-type human partial length IRAK3 (V147 to E596 residues) expressed in bacterial expression system assessed as residual activity at 1 uM by Kinomescan method relative to control
[18] = target: Cyclin-dependent kinase 4/cyclin D1 (Homo sapiens) (UniProt P11802+P24385); assay: Inhibition of wild-type human full length CDK4/cyclinD1 (M1 to E303 residues) expressed in mammalian expression system assessed as residual activity at 1 uM by Kinomescan method relative to control
[19] = target: Macrophage colony-stimulating factor 1 receptor (Homo sapiens) (UniProt P07333); assay: Inhibition of wild-type human partial length CSF1R (I564 to S939 residues) expressed in bacterial expression system assessed as residual activity at 1 uM by Kinomescan method relative to control
[20] = AUC (0 to t) in Sprague-Dawley rat at 1 mg/kg, iv by LC-MS/MS method; format: ADME, organism-based; conditions: in vivo
[21] = target: Rho-associated protein kinase 1 (Homo sapiens) (UniProt Q13464); assay: Inhibition of wild-type human partial length ROCK1 (M1 to R415 residues) expressed in mammalian expression system assessed as residual activity at 1 uM by Kinomescan method relative to control
[22] = target: Uncharacterized serine/threonine-protein kinase SBK3 (Homo sapiens) (UniProt P0C264); assay: Inhibition of wild-type human partial length SgK110 (L22 to R329 residues) expressed in bacterial expression system assessed as residual activity at 1 uM by Kinomescan method relative to control
[23] = target: Myosin light chain kinase 2, skeletal/cardiac muscle (Homo sapiens) (UniProt Q9H1R3); assay: Inhibition of wild-type human partial length MYLK2 (D258 to K570 residues) expressed in bacterial expression system assessed as residual activity at 1 uM by Kinomescan method relative to control
[24] = target: Tyrosine-protein kinase JAK3 (Homo sapiens) (UniProt P52333); assay: Inhibition of wild-type human partial length JAK3 JH1 catalytic domain (I781 to S1124 residues) expressed in mammalian expression system assessed as residual activity at 1 uM by Kinomescan method relative to control
[25] = target: Ephrin type-B receptor 6 (Homo sapiens) (UniProt O15197); assay: Inhibition of wild-type human partial length EPHB6 (Q634 to P948 residues) expressed in mammalian expression system assessed as residual activity at 1 uM by Kinomescan method relative to control

Sequence of Macrophage colony-stimulating factor 1 receptor (Homo sapiens) (P07333 whole entry, the tested form may be a part): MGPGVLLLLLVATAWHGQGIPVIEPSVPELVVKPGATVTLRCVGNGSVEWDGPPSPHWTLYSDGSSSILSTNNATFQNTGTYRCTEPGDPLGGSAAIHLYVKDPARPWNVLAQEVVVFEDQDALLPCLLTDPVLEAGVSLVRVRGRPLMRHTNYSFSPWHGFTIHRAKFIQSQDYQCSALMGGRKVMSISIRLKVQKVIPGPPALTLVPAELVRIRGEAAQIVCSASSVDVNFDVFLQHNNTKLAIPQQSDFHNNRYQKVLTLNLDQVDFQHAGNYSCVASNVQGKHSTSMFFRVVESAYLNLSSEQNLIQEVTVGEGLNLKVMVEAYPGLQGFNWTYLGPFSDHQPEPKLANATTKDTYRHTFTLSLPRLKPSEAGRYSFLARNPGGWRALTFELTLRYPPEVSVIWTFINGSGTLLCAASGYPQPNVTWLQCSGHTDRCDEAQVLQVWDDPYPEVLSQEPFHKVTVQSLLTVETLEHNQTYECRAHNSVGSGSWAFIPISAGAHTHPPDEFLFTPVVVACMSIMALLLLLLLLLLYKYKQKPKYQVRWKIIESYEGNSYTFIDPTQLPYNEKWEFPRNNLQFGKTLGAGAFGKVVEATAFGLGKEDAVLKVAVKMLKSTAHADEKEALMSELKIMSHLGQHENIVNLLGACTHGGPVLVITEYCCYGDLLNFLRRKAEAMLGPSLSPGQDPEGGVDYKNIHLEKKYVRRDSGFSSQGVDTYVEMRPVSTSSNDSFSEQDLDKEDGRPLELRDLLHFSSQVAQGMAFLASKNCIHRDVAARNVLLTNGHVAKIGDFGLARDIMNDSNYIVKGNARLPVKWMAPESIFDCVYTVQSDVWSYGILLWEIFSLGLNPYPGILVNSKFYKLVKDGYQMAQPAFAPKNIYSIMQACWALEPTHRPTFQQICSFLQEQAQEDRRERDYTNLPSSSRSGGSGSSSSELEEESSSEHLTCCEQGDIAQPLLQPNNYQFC
Sequence of Rho-associated protein kinase 2 (Homo sapiens) (O75116 whole entry, looked up, the tested form may be a part): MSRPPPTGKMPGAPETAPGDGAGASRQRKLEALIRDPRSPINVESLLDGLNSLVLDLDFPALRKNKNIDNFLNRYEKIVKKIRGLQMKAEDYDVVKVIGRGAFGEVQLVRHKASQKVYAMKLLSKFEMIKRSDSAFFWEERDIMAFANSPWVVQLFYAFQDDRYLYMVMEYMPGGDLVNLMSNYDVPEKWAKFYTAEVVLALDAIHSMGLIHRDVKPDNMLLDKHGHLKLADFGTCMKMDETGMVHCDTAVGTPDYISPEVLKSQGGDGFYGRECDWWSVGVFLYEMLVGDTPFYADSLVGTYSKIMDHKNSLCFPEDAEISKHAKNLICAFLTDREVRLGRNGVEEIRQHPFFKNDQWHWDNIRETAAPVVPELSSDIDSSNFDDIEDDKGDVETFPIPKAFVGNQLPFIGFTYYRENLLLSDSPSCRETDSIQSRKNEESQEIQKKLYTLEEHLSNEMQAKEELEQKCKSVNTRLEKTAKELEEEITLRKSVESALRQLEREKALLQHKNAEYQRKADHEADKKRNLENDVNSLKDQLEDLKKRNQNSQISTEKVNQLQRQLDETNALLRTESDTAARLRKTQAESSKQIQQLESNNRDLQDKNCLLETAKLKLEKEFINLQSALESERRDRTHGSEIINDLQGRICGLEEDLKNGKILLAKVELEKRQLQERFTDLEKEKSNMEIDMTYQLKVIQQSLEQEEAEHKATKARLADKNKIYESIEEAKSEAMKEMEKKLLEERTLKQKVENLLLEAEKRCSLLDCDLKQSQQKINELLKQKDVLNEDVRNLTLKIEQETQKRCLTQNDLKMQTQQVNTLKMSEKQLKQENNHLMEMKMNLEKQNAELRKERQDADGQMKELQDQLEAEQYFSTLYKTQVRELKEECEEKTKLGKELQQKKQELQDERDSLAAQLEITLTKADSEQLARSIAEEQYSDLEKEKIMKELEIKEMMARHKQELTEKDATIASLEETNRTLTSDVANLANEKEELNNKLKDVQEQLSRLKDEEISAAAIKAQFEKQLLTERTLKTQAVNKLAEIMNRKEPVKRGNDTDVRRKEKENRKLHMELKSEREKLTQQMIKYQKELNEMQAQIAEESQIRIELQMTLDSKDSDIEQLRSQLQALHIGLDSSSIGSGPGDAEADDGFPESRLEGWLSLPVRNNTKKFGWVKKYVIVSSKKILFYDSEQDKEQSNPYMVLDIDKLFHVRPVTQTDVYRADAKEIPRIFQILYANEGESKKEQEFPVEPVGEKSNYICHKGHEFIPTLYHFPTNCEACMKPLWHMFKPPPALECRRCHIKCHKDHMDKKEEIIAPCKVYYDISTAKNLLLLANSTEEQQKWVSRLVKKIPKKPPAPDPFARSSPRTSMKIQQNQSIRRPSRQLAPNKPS
Sequence of Rho-associated protein kinase 1 (Homo sapiens) (Q13464 2-1354 limits assumed): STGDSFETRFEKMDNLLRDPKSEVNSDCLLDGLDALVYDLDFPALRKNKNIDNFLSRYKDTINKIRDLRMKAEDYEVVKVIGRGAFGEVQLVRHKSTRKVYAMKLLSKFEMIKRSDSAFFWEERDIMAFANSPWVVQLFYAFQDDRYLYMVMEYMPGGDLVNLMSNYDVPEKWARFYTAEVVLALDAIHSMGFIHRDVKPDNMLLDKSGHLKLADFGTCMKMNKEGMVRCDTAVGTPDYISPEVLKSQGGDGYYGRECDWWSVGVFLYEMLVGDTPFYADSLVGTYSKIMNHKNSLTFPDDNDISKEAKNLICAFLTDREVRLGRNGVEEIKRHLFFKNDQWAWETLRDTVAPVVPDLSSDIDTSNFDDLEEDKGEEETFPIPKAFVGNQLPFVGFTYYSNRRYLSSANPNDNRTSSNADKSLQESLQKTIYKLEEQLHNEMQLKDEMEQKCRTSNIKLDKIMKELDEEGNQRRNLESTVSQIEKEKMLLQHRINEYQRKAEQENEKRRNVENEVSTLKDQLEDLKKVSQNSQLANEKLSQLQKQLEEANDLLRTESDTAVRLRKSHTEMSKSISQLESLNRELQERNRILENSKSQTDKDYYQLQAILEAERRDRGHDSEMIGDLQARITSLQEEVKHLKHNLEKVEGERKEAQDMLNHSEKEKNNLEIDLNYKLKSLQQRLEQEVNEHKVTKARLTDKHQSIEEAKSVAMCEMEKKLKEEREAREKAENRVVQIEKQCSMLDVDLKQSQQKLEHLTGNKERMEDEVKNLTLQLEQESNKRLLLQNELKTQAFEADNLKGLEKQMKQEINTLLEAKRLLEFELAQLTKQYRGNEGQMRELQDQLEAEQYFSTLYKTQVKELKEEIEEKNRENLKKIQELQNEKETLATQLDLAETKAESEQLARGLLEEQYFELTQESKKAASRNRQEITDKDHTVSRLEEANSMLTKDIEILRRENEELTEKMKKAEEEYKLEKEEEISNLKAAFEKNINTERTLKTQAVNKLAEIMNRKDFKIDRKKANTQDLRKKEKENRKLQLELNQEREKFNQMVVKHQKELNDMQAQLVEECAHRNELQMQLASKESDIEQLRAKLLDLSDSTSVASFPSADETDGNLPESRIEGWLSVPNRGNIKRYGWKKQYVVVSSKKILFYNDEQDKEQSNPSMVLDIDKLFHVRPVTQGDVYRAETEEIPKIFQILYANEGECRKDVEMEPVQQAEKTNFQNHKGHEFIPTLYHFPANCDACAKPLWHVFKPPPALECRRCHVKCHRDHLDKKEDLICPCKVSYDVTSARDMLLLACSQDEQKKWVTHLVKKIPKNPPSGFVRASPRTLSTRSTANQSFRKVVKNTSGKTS
Sequence of Uncharacterized serine/threonine-protein kinase SBK3 (Homo sapiens) (P0C264 whole entry, the tested form may be a part): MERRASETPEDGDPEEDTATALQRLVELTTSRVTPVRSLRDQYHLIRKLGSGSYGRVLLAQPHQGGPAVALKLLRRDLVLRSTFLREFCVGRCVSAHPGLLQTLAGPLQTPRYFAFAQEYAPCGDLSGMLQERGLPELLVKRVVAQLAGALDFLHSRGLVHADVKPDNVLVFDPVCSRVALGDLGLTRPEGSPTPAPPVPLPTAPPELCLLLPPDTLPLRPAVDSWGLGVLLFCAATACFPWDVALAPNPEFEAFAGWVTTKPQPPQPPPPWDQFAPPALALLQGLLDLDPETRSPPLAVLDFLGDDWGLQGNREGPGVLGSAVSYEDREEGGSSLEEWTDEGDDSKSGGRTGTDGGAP
Sequence of Cyclin-dependent kinase 15 (Homo sapiens) (Q96Q40 whole entry, the tested form may be a part): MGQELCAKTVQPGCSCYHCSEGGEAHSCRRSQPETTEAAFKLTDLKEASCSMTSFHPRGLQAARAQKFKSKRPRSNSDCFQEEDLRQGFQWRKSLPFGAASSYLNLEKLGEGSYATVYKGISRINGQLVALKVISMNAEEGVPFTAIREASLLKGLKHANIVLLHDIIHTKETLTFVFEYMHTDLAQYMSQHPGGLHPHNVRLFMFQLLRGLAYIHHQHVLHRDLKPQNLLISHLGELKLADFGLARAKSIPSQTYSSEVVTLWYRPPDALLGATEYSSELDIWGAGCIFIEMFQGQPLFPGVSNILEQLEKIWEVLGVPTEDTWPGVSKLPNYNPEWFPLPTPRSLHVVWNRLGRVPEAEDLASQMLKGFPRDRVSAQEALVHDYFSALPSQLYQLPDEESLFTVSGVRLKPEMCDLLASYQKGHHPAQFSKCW
Sequence of Tyrosine-protein kinase Fgr (Homo sapiens) (P09769 2-529 limits assumed): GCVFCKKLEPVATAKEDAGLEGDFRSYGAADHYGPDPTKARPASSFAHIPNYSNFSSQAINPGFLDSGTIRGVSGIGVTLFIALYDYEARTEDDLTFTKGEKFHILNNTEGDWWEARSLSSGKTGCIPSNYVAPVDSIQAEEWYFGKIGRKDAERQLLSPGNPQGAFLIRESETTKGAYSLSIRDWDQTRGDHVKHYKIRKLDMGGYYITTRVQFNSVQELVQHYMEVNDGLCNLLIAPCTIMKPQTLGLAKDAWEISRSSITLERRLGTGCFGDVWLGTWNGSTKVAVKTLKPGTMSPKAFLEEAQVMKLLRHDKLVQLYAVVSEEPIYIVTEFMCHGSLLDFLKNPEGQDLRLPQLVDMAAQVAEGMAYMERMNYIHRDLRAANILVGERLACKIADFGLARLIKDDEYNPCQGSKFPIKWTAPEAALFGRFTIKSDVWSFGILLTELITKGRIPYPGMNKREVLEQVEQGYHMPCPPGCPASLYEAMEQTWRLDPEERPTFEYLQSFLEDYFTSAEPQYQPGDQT

C=CC(=O)Nc1cc(Nc2cc(-c3cccc(NC(=O)c4ccc(C(C)(C)C)cc4)c3C)cn(C)c2=O)ccc1C(=O)N1CCOCC1
Activity [1]: 97%
IC50 [2]: 7 nM
Activity [3]: 97%
Activity [4]: 94%
Activity [5]: 89%
AUC(0-inf) [6]: 34.5 ng·h/mL
Activity [7]: 99%
Activity [8]: 92%
Activity [9]: 100%
Activity [10]: 81%
Activity [11]: 100%
Activity [12]: 93%
Activity [13]: 96%
Activity [14]: 80%
Activity [15]: 77%
Activity [16]: 100%
Activity [17]: 96%
Activity [18]: 100%
Activity [19]: 86%
AUC(0-t) [20]: 182 ng·h/mL
Activity [21]: 100%
Activity [22]: 77%
Activity [23]: 100%
Activity [24]: 79%
Activity [25]: 100%
